In PubChem BioAssay (NCI) one finds TGI and GI50 data, which are given here for 17 compounds.

Some test systems named below: 786-0 renal; EKVX NSCLC; HOP-18 NSCLC; M19-MEL melanoma; DMS 273 small cell lung; DLD-1 colon; DMS 114 small cell lung; T-47D breast; BT-549 breast; HS 578T breast.
Test in all cases: growth of human tumour cells (NCI), 48 h

“And” between values parts separate entries of the source, which are not always exact repeats. Identical values can stand only once.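 Five concentrations, 48 hours, 96-well plates. GI50: concentration for 50% inhibition of growth. The concentration for full growth arrest is given as TGI.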

`N#C/C(=C\c1ccccc1)C(NO)Nc1ccccc1` (stereo not drawn): the TGI in the assay on 786-0 renal, with EKVX NSCLC, with HOP-18 NSCLC, in the assay on M19-MEL melanoma, in the assay on DMS 273 small cell lung and with DLD-1 colon was greater than 100 µM throughout.
Consider `CCC(=O)C(C(=O)CC)c1c(OC(=O)c2ccccc2)ccc(O)c1C(=O)OC`, for which the TGI with 786-0 renal, with EKVX NSCLC, with M19-MEL melanoma and in the assay on DMS 273 small cell lung was greater than 100 µM throughout.
For `Clc1ccc(OCc2nnc3n2N=C(c2ccccc2)CS3)c(Cl)c1`, the TGI in the assay with 786-0 renal, with DMS 114 small cell lung, with M19-MEL melanoma, with DMS 273 small cell lung and in the assay with DLD-1 colon was greater than 100 µM throughout.
For the compound `COc1ccc2c(c1)[n+](=O)c(C(=O)CC(=O)C(=O)Nc1cccc(C)c1C)c(C)n2[O-]`, the TGI in the assay on 786-0 renal, with EKVX NSCLC, with HOP-18 NSCLC, with DMS 114 small cell lung, in the assay on M19-MEL melanoma and in the assay with DLD-1 colon was greater than 100 µM in each case.
For `O=C1C=C(Nc2ccc(S(=O)(=O)Nc3ncccn3)cc2)c2ccccc2C1=O`, the TGI in the assay on 786-0 renal is 45.6 µM; with EKVX NSCLC, 67.1 µM; in the assay on HOP-18 NSCLC, 82.6 µM; in the assay on M19-MEL melanoma it was 29.3 µM; in the assay with DMS 273 small cell lung, 68.8 µM; with DLD-1 colon it was 43.5 µM.
Turning to `CCOC(=O)C1=C(C(=O)OCC)C2(c3ccccc3)N(O1)c1ccccc1C2(C)C` (stereo not drawn), the TGI in the assay on 786-0 renal was greater than 100 µM; in the assay on EKVX NSCLC it was greater than 100 µM; with HOP-18 NSCLC it was 83.3 µM; with M19-MEL melanoma it was greater than 100 µM; in the assay with DLD-1 colon it was greater than 100 µM.
As to `c1ccc(C2CC(c3ccc4ccccc4c3)=Nc3ccccc3S2)cc1` (stereo not drawn), the TGI in the assay with 786-0 renal was 30.2 µM; in the assay on EKVX NSCLC it was 50.7 µM; in the assay with HOP-18 NSCLC, 58.5 µM; in the assay with M19-MEL melanoma, 40.5 µM; in the assay on DMS 273 small cell lung it was 48.6 µM.
Turning to `Cc1ccccc1N=Nc1c(-c2ccccc2)nn(C(=O)CC(=O)Nc2cccc(Cl)c2)c1-c1ccccc1`, the TGI with 786-0 renal was greater than 31.6 µM; in the assay with EKVX NSCLC, greater than 31.6 µM; in the assay with HOP-18 NSCLC it was greater than 31.6 µM; with DMS 114 small cell lung it was 22.1 µM; in the assay on DMS 273 small cell lung it was greater than 31.6 µM; in the assay on DLD-1 colon it was greater than 31.6 µM.
As to `O=C(N/C(=C/c1cccc([N+](=O)[O-])c1)c1nc2ccc(Cl)cc2[nH]1)c1ccccc1`, the TGI in the assay on 786-0 renal was greater than 100 µM; in the assay with EKVX NSCLC it was 25.3 µM; in the assay with HOP-18 NSCLC, greater than 100 µM; with DMS 114 small cell lung it was 62.1 µM; in the assay on M19-MEL melanoma, greater than 100 µM.
As for `CC[C@@H](O)C[C@H]1CCC[C@@]2(C[C@@H]3OC(=O)/C=C/[C@@](C)(O)[C@@H](O)[C@H](C)[C@@H](O)[C@H](OC4CCC(N(C)C)C(C)O4)[C@@H](O)[C@](C)(O)CCCCC/C=C/[C@@H]4CC(C)(C)O[C@@]4(O)C[C@H](O2)[C@H]3C)O1` (stereo partly drawn), the TGI with 786-0 renal was found to be 34.1 µM; in the assay on EKVX NSCLC it was 19.1 µM; with T-47D breast, 26.3 µM; with BT-549 breast, 29.2 µM; in the assay with HS 578T breast it was 33.5 µM.
As for `Cc1noc(C)c1-c1cnc2c(-c3ccc(C(=O)O)cc3)cn([C@@H](C)c3ccccn3)c2c1`, the GI50 was 2.13 µM with 786-0 renal; 0.58 µM with EKVX NSCLC; 0.623 µM with T-47D breast; 11.8 µM with BT-549 breast; 0.188 µM in the assay with HS 578T breast. Moreover, the TGI in the assay with 786-0 renal, in the assay with EKVX NSCLC, in the assay on T-47D breast, in the assay with BT-549 breast and with HS 578T breast was greater than 100 µM throughout.
Regarding `O=C(O)Cn1ccc2ccccc21`, the GI50 in the assay on 786-0 renal, in the assay on EKVX NSCLC, with T-47D breast, in the assay with BT-549 breast and with HS 578T breast was greater than 100 µM each time. Moreover, the TGI in the assay on 786-0 renal, in the assay on EKVX NSCLC, in the assay with T-47D breast, in the assay on BT-549 breast and in the assay on HS 578T breast was greater than 100 µM each time.
For `Cc1c(C)c2c(c(C)c1OCC(=O)O)CC[C@@](C)(CCC[C@@H](C)CCC[C@@H](C)CCCC(C)C)O2`, the GI50 in the assay with 786-0 renal was 93.3 µM; with EKVX NSCLC, 64.2 µM; in the assay with T-47D breast, 51.7 µM; in the assay with BT-549 breast, 71.7 µM; in the assay on HS 578T breast, 89 µM. For the same compound, the TGI with 786-0 renal came out at 185 µM; in the assay on EKVX NSCLC, 148 µM; in the assay with T-47D breast it was 171 µM; in the assay on BT-549 breast, 151 µM; with HS 578T breast it was 229 µM.
For `O=C(/C=C\n1cnc(-c2cc(C(F)(F)F)cc(C(F)(F)F)c2)n1)N1CC(F)(F)C1`, the GI50 in the assay with 786-0 renal is 0.387 µM; in the assay on EKVX NSCLC, 0.953 µM; in the assay with T-47D breast it was 0.634 µM; in the assay on BT-549 breast it was 0.0336 µM; in the assay on HS 578T breast, 0.409 µM. The TGI in the assay with 786-0 renal was 6.12 µM; in the assay on EKVX NSCLC, 14.6 µM; in the assay on T-47D breast it was greater than 21.6 µM; in the assay on BT-549 breast, 0.223 µM; in the assay with HS 578T breast, 5.34 µM.
On to `COC(=O)N/N=C(\C)C(CN(C)C)C(c1ccccc1)c1c(O)c2ccccc2oc1=O` (stereo not drawn), for which the TGI in the assay on 786-0 renal, in the assay on EKVX NSCLC, in the assay on DMS 114 small cell lung, in the assay with M19-MEL melanoma, in the assay with DMS 273 small cell lung and in the assay on DLD-1 colon was greater than 100 µM each time.
As to `CN1CCN(CCCOc2cccc3nc(Nc4ccc(F)c(F)c4)ccc23)CC1`, the GI50 in the assay on 786-0 renal was 4.66 µM; in the assay with EKVX NSCLC, 4.83 µM; in the assay on T-47D breast it was 3.39 µM; in the assay on BT-549 breast, 4.34 µM; with HS 578T breast, 4.73 µM. Besides, the TGI in the assay on 786-0 renal came to 9.25 µM; in the assay on EKVX NSCLC it was 9.41 µM; with T-47D breast it was 9.26 µM; in the assay with BT-549 breast, 8.85 µM; in the assay on HS 578T breast, 11.8 µM.
`CNCCCNc1c2ccccc2nc2cccc([N+](=O)[O-])c12`: the TGI in the assay on 786-0 renal was 0.0247 µM; in the assay on EKVX NSCLC it was 0.0226 µM and 0.0389 µM; with T-47D breast, 0.0139 µM; with BT-549 breast, 0.0101 µM; in the assay on HS 578T breast it was 0.00826 µM; in the assay on DMS 114 small cell lung, 0.0108 µM. Further, the TGI with M19-MEL melanoma was determined as 0.0171 µM; in the assay on DMS 273 small cell lung, 0.0465 µM; in the assay with DLD-1 colon it was 0.0264 µM.
